Experimental data taken from patent US8518968B2, “Hydrazone and diacyl hydrazine compounds and methods of use” (The United States of America, as represented by the …, priority 2009, dated 2013).
Structures can show the parent of a compound that is named as a salt.

System: JEKO-1 cells stably transfected with shRNAs to luciferase or NOXA
Assay: Effect of NOXA shRNA on cytotoxicity in JEKO-1 cells (MTT)
Assay type: cell-based
Conditions: JEKO-1 shLuc vs shNoxa, 24 hours
Protocol: The effect of NOXA on cytotoxicity of CBU-028, EERI, or bortezomib is determined. FIG. 4 presents graphs comparing CBU-028, EERI, and bortezomib with respect to percent cell viability as a function of concentration, measured using JEKO-1 cells stably transfected with shRNAs to luciferase (shLuc, control, ▪) or NOXA (shNoxa, ◯, sequence: [NT]) after treatment with the compound for 24 hrs, with viability determined with MTT as described above and normalized to the untreated control.

| Structure (SMILES) | requirement of NOXA for cytotoxicity |
| --- | --- |
| CC(C)C[C@H](NC(=O)[C@H](Cc1ccccc1)NC(=O)c1cnccn1)B(O)O [bortezomib] | Noxa is equally required |

System: JEKO-1 cells
Assay: cells
Conditions: Homo sapiens, JeKo-1, 48 h

| Structure (SMILES) | IC50 [µM] |
| --- | --- |
| CC1(C)C(N(O)C(=O)Nc2ccc(C(F)(F)F)cc2)N(c2ccc(C(F)(F)F)cc2)C(=O)N1CC(=O)NN (centres unmarked) [CBU-007, 1-(1-(2-hydrazinyl-2-oxoethyl)-5,5-dimethyl-2-oxo-3-(4-(tri-fluoromethyl)phenyl)imi-dazolidin-4-yl)-1-hydroxy-3-(4-(trifluoromethyl)phenyl)urea] | 30 |
| O=C(N/N=C/C=C/c1ccc([N+](=O)[O-])o1)c1ccc(C(=O)N/N=C/C=C/c2ccc([N+](=O)[O-])o2)c(O)c1O [CBU-049, (N′1E,N′4E)-2,3-dihydroxy-N′1,N′4-bis((E)-3-(5-nitrofuran-2-yl)allylidene)terephthalo hydrazide] | 1.5 |

Same assay, conditions: Homo sapiens, JeKo-1, 48 h, JEKO-1 cells, incubated 2 days, MTT, four parameter logistic fit

| Structure (SMILES) | IC50 [µM] |
| --- | --- |
| CC1(C)C(N(O)C(=O)Nc2ccc(C(F)(F)F)cc2)N(c2ccc(C(F)(F)F)cc2)C(=O)N1CC(=O)N/N=C/C=C/c1ccc([N+](=O)[O-])o1 (centres unmarked) [CBU-008] | 2.5 |
| CC1(C)C(N(O)C(=O)Nc2ccc(Cl)cc2)N(c2ccc(C(F)(F)F)cc2)C(=O)N1CC(=O)N/N=C/C=C/c1ccc([N+](=O)[O-])o1 (centres unmarked) [CBU-013] | 3 |
| CC1(C)C(N(O)C(=O)Nc2ccc(C(F)(F)F)cc2)N(c2ccc(Cl)cc2)C(=O)N1CC(=O)N/N=C/C=C/c1ccc([N+](=O)[O-])o1 (centres unmarked) [CBU-014] | 3 |
| O=C(N/N=C/C=C/c1ccc([N+](=O)[O-])o1)c1ccccc1 [CBU-015, (E)-N′-((E)-3-(5-nitrofuran-2-yl)allylidene)benzohydrazide] | 8 |
| O=C(N/N=C/C=C/c1ccc([N+](=O)[O-])o1)c1cccnc1 [CBU-016, (E)-N′-((E)-3-(5-nitrofuran-2-yl)allylidene)nicotinonhydrazide] | 7 |
| CCNC(=S)N/N=C/C=C/c1ccc([N+](=O)[O-])o1 [CBU-017, (E)-N-ethyl-2-((E)-3-(5-nitrofuran-2-yl)allylidene)hydrazine-carbothioamide] | 15 |
| CC(C)(C)OC(=O)N/N=C/C=C/c1ccc([N+](=O)[O-])o1 [CBU-018, (E)-tert-butyl 2-((E)-3-(5-nitrofuran-2-yl)allylidene)hydrazine-carboxylate] | 18 |
| C[N+](C)(C)CC(=O)N/N=C/C=C/c1ccc([N+](=O)[O-])o1 [CBU-019] | 3.5 |
| N=C(N)N/N=C/C=C/c1ccc([N+](=O)[O-])o1 [CBU-020, (E)-2-((E)-3-(5-nitrofuran-2-yl)allylidene)hydrazine-carboximidamide hydrochloride] | 4 |
| O=C(N/N=C/C=C/c1ccc([N+](=O)[O-])o1)c1cccc(O)c1 [CBU-021, (E)-3-hydroxy-N′-((E)-3-(5-nitrofuran-2-yl)allylidene)benzohydrazide] | 8 |
| O=C(CNC(=O)Nc1ccc(Cl)cc1)N/N=C/C=C/c1ccc([N+](=O)[O-])o1 [CBU-022, 1-(4-chlorophenyl)-3-(2-((E)-2-((E)-3-(5-nitrofuran-2-yl)allylidene)hydrazinyl)-2-oxoethyl)urea] | 6 |
| CC1(C)C(N(O)C(=O)Nc2ccc(Cl)cc2)N(c2ccc(Cl)cc2)C(=O)N1CC(=O)N/N=C/C=C/c1ccco1 (centres unmarked) [CBU-023] | 15 |
| CC1(C)C(N(O)C(=O)Nc2ccc(Cl)cc2)N(c2ccc(Cl)cc2)C(=O)N1CC(=O)N/N=C/c1ccc([N+](=O)[O-])o1 (centres unmarked) [CBU-024] | 7 |
| O=C(N/N=C/C=C/c1ccc([N+](=O)[O-])o1)c1ccccc1O [CBU-025, (E)-2-hydroxy-N′-((E)-3-(5-nitrofuran-2-yl)allylidene)benzohydrazide] | 6.5 |
| O=C(N/N=C/C=C/c1ccc([N+](=O)[O-])o1)c1ccc(O)cc1 [CBU-027, (E)-4-hydroxy-N′-((E)-3-(5-nitrofuran-2-yl)allylidene)benzohydrazide] | 7.5 |
| O=C(N/N=C/C=C/c1ccc([N+](=O)[O-])o1)c1ccncc1 [CBU-033, (E)-N′-((E)-3-(5-nitrofuran-2-yl)allylidene)isonicotino-hydrazide] | 6 |

| Structure (SMILES) | IC50 [µM] |
| --- | --- |
| O=C(N/N=C/C=C/c1ccc([N+](=O)[O-])o1)c1cccs1 [CBU-034, (E)-N′-((E)-3-(5-nitrofuran-2-yl)allylidene)thiophene-2-carbohydrazide] | 20 |
| O=C(N/N=C/C=C/c1ccc([N+](=O)[O-])o1)c1nc(O)c2ccccc2c1O [CBU-036, (E)-1,4-dihydroxy-N′-((E)-3-(5-nitrofuran-2-yl)allylidene)isoquinoline-3-carbohydrazide] | 9 |
| Cc1cccc(C(=O)N/N=C/C=C/c2ccc([N+](=O)[O-])o2)c1O [CBU-038, (E)-2-hydroxy-3-methyl-N′-((E)-3-(5-nitrofuran-2-yl)allylidene)benzohydrazide] | 9 |
| O=C(N/N=C/C=C/c1ccc([N+](=O)[O-])o1)c1cnc2cc(C(F)(F)F)ccc2c1O [CBU-039, (E)-4-hydroxy-N′-((E)-3-(5-nitrofuran-2-yl)allylidene)-7-(trifluoromethyl)quinoline-3-carbohydrazide] | 15 |
| O=C(N/N=C/C=C/c1ccc([N+](=O)[O-])o1)c1cnc2c(C(F)(F)F)cccc2c1O [CBU-040, (E)-4-hydroxy-N′((E)-3-(5-nitrofuran-2-yl)allylidene)-8-(trifluoromethyl)quinoline-3-carbohydrazide] | 10 |
| O=C(N/N=C/C=C/c1ccc([N+](=O)[O-])o1)c1cc(Br)ccc1O [CBU-041, (E)-5-bromo-2-hydroxy-N′-((E)-3-(5-nitrofuran-2-yl)allylidene)benzohydrazide] | 10 |
| O=C(N/N=C/C=C/c1ccc([N+](=O)[O-])o1)c1ccc(O)cc1O [CBU-042, (E)-2,4-dihydroxy-N′-((E)-3-(5-nitrofuran-2-yl)allylidene)benzohydrazide] | 40 |
| COc1ccc(C(=O)N/N=C/C=C/c2ccc([N+](=O)[O-])o2)c(O)c1 [CBU-043, (E)-2-hydroxy-4-methoxy-N′-((E)-3-(5-nitrofuran-2-yl)allylidene)benzohydrazide] | 30 |
| Cc1ccc(O)c(C(=O)N/N=C/C=C/c2ccc([N+](=O)[O-])o2)c1 [CBU-045, (E)-2-hydroxy-5-methyl-N′-((E)-3-(5-nitrofuran-2-yl)allylidene)benzohydrazide] | 6 |
| COc1ccc(O)c(C(=O)N/N=C/C=C/c2ccc([N+](=O)[O-])o2)c1 [CBU-046, (E)-2-hydroxy-5-methoxy-N′-((E)-3-(5-nitrofuran-2-yl)allylidene)benzohydrazide] | 10 |
| O=C(N/N=C/C=C/c1ccccc1)c1cc2ccccc2cc1O [CBU-051, (E)-3-hydroxy-N′-((E)-3-phenylallylidene)-2-naphthohydrazide] | 10 |
| CN(C)c1ccc(/C=C/C=N/NC(=O)c2cc3ccccc3cc2O)cc1 [CBU-054, (E)-N′-((E)-3-(4-(dimethylamino)phenyl)allylidene)-3-hydroxy-2-naphthohydrazide] | 15 |
| O=C(N/N=C/C=C/c1ccccc1[N+](=O)[O-])c1cc2ccccc2cc1O [CBU-055, (E)-3-hydroxy-N′-((E)-3-(2-nitrophenyl)allylidene)-2-naphthohydrazide] | 6 |
| O=C(N/N=C/C=C/c1ccc([N+](=O)[O-])cc1)c1cc2ccccc2cc1O [CBU-061, (E)-3-hydroxy-N′-((E)-3-(4-nitrophenyl)allylidene)-2-naphthohydrazide] | 5 |
| O=C(/C=C/c1ccc([N+](=O)[O-])o1)NNC(=O)c1cc2ccccc2cc1O [CBU-062, (E)-3-hydroxy-N′-(3-(5-nitrofuran-2-yl)acryloyl)-2-naphthohydrazide] | 2.5 |
| CC1(C)C(N(O)C(=S)Nc2ccc(Cl)cc2)N(c2ccc(Cl)cc2)C(=S)N1CC(=O)N/N=C/C=C/c1ccc([N+](=O)[O-])o1 (centres unmarked) [CBU-073] | 3 |
